In US8841382B2, “Hyperbranched polyethers/dendrimers for solubilzation of sparingly soluble active ingredients” (BASF SE, priority 2010, dated 2014):
≈ marks a conversion by molar mass, not a printed value. Read-outs that look alike come from different tables or passages of the source.

Test: Measurement of the solubilization of active ingredients by amphiphiles
Format: physicochemical
Details: thermodynamic from solid
Source text: After a rest time of one hour, excess (i.e. unsolubilized) active ingredient was removed by centrifuging. The resulting clear or opaque solution was subsequently analyzed for its active ingredient content by means of UV spectroscopy. The wavelengths of the UV spectroscopy measurement are compiled in table 1.

[1] = distilled water without polymer, room temperature, stirred 24 h, UV spectroscopy, read-out: Solubility of active ingredient, no polymer (noninventive)

SMILES	solubility at 24 h [1]	solubility at 24 h (water)
NC(=O)N1c2ccccc2C=Cc2ccccc21 [Carbamazepine]	140 µg/mL (≈ 593 µM)	–
N#Cc1nn(-c2c(Cl)cc(C(F)(F)F)cc2Cl)c(N)c1[S+]([O-])C(F)(F)F (stereo not shown) [Fipronil]	–	3 µg/mL (≈ 6.86 µM)
CN1C(C(=O)Nc2ccccn2)=C(O)c2ccccc2S1(=O)=O [Piroxicam]	21 µg/mL (≈ 63.4 µM)	–
COC(=O)N(OC)c1ccccc1COc1ccn(-c2ccc(Cl)cc2)n1 [Pyraclostrobin]	22.5 µg/mL (≈ 58 µM)	–
